# Reference: patent publication US20240024515A1, “COMBINATION TREATMENT” (priority 2022, published 2024)
# Like-named read-outs stand apart in the source and are kept apart here.
# Assays:
# CFTR [1] = assay type: cell-based, human; details: no LV
# Experimental: To analyse the functionality of rSIV.F/HN-CFTR-expressed channels, CFTR-mediated chloride current was measured in an Ussing chamber using rSIV.F/HN-CFTR (vGM058) transduced ALI cultures. First, sodium channels (ENaC) were blocked using amiloride, followed by stimulation of CFTR using forskolin and the change in short circuit current (Δlsc) was calculated (both peak and plateau values). In some experiments, ivacaftor, a small molecule CFTR potentiator which increases channel open probability, was added for additional stimulation of CFTR current. Finally, the chloride current was blocked with CFTR-Inhibitor 172 (FIG. 3D).
# To compare the functionality of vGM058 and vGM244, CFTR-mediated chloride current was measured in an Ussing chamber using class II ALI cultures transduced with both vGM058 and vGM244.
# To analyse the functionality of rSIV.F/HN-CFTR-expressed channels, CFTR-mediated chloride current was measured in an Ussing chamber using rSIV.F/HN-CFTR (vGM244) transduced class II ALI cultures (Table 3).
# CFTR [2] = biological target: CFTR (Homo sapiens, UniProt P13569); assay type: cell-based; details: no LV
# [3] = Table 1, Class II F508del/F508del ALI, vGM058 study
# [4] = Table 3, Class II F508del/F508del ALI, vGM244 study
# [5] = Table 2, Class I CFTR KO ALI, vGM058 study
# [6] = Table 4, Class I CFTR KO ALI, vGM244 study
# Sequence of CFTR (Homo sapiens, UniProt P13569) (P13569 whole entry): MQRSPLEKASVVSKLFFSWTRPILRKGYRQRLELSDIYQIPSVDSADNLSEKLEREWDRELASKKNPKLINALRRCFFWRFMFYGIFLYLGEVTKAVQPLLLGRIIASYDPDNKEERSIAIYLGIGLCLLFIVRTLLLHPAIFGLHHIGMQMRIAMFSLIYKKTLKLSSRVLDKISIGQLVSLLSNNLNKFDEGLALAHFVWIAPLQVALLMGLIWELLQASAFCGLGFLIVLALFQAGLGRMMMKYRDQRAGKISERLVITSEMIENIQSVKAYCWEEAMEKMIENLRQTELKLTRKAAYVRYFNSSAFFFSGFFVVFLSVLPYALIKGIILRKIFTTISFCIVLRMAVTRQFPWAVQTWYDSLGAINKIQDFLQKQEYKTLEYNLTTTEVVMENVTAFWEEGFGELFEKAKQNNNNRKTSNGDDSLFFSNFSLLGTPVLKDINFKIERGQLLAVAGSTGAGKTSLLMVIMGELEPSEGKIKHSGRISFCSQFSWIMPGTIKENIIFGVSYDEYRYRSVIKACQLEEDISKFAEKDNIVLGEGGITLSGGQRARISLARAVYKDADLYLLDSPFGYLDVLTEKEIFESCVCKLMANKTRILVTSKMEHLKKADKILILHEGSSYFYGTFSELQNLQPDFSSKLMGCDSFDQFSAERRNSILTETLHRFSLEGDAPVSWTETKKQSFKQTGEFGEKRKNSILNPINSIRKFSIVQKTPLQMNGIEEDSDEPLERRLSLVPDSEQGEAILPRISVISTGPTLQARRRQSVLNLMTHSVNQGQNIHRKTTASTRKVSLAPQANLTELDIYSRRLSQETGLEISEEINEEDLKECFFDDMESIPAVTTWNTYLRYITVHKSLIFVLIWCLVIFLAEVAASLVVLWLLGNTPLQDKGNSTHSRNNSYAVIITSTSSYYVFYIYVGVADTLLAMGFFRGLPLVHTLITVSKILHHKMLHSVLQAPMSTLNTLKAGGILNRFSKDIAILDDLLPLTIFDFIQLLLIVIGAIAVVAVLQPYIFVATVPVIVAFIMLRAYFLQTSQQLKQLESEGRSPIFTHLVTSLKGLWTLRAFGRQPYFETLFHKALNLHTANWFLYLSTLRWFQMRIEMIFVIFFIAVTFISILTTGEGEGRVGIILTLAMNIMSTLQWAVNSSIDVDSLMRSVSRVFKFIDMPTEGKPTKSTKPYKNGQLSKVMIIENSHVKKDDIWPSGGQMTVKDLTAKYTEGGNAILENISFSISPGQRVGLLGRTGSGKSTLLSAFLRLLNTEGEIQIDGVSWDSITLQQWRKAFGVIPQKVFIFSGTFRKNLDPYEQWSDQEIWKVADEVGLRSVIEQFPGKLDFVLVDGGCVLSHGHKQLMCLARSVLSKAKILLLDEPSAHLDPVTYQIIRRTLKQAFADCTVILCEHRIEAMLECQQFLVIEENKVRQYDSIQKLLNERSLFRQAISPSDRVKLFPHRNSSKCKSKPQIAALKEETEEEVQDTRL
smiles,measurement,setting,value
"CC(C)(C)c1cc(C(C)(C)C)c(NC(=O)c2c[nH]c3ccccc3c2=O)cc1O [Iva, ivacaftor]",ΔCFTR-inh172peak,CFTR [1]; [3],−2.1 ± 0.3
same,ΔCFTR-inh172plateau,CFTR [1]; [3],−2.1 ± 0.3
same,ΔFskpeak,CFTR [1]; [3],−0.1 ± 0.3
same,ΔFskplateau,CFTR [1]; [3],−0.1 ± 0.3
same,ΔCFTR-inh172peak,CFTR [1]; [4],−1.6 ± 0.1
same,ΔCFTR-inh172plateau,CFTR [1]; [4],−1.6 ± 0.1
same,ΔFskpeak,CFTR [1]; [4],1.0 ± 0.3
same,ΔFskplateau,CFTR [1]; [4],1.0 ± 0.3
same,ΔCFTR-inh172peak,CFTR [2]; [5],−3.0 ± 0.2
same,ΔCFTR-inh172plateau,CFTR [2]; [5],−3.0 ± 0.2
same,ΔFskpeak,CFTR [2]; [5],−1.9 ± 0.1
same,ΔFskplateau,CFTR [2]; [5],−1.9 ± 0.1
same,ΔCFTR-inh172peak,CFTR [2]; [6],−0.2 ± 0.2
same,ΔCFTR-inh172plateau,CFTR [2]; [6],−0.2 ± 0.2
same,ΔFskpeak,CFTR [2]; [6],−0.7 ± 0.2
same,ΔFskplateau,CFTR [2]; [6],−0.7 ± 0.2
